Patent US20250122183A1 (Pfizer Inc., priority 2023, published 2025)

How the values were obtained:
Format in all cases: biochemical
KAT6A Full length enzyme = KAT6A Full length enzyme (Homo sapiens (Human), UniProt Q92794); assay: KAT6A assay (SAMDI-MS acetylation of H3 1-21 peptide); conditions: Morrison equation fit; replicate number in parentheses; read-out: KAT6A Ki (nM) (replicate number)
[1] = biological target: KAT7+JADE1+EAF6+ING5 4 protein complex (Homo sapiens (Human), UniProt O95251); assay: KAT7 JADE1 assay (SAMDI-MS acetylation of H3 1-21 peptide); conditions: Morrison equation fit; replicate number in parentheses; read-out: KAT7 JADE1 Ki (nM) (replicate number)
[2] = biological target: KAT7+BRPF1+EAF6+ING5 4 protein complex (Homo sapiens (Human), UniProt O95251); assay: KAT7 BRPF1 assay (SAMDI-MS acetylation of H3 1-21 peptide); conditions: Morrison equation fit; replicate number in parentheses
KAT8 Full length enzyme = KAT8 Full length enzyme (Homo sapiens (Human), UniProt Q9H7Z6); assay: KAT8 assay (SAMDI-MS acetylation of H3 1-21 peptide); conditions: Morrison equation fit; replicate number in parentheses; read-out: KAT8 Ki (nM) (replicate number)
KAT5 Full length enzyme = KAT5 Full length enzyme (Homo sapiens (Human), UniProt Q92993); assay: KAT5 assay (SAMDI-MS acetylation of H4 1-21 peptide); conditions: Morrison equation fit; replicate number in parentheses; read-out: KAT5 Ki (nM) (replicate number)
[3] = biological target: KAT7+BRPF2+EAF6+ING5 4 protein complex (Homo sapiens (Human), UniProt O95251); assay: KAT7 BRPF2 assay (SAMDI-MS acetylation of H3 1-21 peptide); conditions: Morrison equation fit; replicate number in parentheses; read-out: KAT7 BRPF2 Ki (nM) (replicate number)

Chain of KAT8 Full length enzyme (Q9H7Z6 whole entry): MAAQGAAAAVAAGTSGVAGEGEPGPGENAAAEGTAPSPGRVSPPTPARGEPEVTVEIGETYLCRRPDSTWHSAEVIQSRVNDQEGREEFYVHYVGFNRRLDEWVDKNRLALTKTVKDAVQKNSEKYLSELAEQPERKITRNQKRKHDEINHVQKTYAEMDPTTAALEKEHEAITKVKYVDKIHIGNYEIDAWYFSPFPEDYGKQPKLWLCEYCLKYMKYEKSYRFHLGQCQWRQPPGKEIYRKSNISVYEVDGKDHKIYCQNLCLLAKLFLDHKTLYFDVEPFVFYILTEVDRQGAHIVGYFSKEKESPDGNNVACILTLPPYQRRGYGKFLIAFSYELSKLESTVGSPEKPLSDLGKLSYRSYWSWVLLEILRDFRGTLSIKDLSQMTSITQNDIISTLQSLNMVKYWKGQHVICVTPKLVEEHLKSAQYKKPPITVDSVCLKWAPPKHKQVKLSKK
Chain of KAT6A Full length enzyme (Q92794 other isoform, or with tags, fused parts or gaps): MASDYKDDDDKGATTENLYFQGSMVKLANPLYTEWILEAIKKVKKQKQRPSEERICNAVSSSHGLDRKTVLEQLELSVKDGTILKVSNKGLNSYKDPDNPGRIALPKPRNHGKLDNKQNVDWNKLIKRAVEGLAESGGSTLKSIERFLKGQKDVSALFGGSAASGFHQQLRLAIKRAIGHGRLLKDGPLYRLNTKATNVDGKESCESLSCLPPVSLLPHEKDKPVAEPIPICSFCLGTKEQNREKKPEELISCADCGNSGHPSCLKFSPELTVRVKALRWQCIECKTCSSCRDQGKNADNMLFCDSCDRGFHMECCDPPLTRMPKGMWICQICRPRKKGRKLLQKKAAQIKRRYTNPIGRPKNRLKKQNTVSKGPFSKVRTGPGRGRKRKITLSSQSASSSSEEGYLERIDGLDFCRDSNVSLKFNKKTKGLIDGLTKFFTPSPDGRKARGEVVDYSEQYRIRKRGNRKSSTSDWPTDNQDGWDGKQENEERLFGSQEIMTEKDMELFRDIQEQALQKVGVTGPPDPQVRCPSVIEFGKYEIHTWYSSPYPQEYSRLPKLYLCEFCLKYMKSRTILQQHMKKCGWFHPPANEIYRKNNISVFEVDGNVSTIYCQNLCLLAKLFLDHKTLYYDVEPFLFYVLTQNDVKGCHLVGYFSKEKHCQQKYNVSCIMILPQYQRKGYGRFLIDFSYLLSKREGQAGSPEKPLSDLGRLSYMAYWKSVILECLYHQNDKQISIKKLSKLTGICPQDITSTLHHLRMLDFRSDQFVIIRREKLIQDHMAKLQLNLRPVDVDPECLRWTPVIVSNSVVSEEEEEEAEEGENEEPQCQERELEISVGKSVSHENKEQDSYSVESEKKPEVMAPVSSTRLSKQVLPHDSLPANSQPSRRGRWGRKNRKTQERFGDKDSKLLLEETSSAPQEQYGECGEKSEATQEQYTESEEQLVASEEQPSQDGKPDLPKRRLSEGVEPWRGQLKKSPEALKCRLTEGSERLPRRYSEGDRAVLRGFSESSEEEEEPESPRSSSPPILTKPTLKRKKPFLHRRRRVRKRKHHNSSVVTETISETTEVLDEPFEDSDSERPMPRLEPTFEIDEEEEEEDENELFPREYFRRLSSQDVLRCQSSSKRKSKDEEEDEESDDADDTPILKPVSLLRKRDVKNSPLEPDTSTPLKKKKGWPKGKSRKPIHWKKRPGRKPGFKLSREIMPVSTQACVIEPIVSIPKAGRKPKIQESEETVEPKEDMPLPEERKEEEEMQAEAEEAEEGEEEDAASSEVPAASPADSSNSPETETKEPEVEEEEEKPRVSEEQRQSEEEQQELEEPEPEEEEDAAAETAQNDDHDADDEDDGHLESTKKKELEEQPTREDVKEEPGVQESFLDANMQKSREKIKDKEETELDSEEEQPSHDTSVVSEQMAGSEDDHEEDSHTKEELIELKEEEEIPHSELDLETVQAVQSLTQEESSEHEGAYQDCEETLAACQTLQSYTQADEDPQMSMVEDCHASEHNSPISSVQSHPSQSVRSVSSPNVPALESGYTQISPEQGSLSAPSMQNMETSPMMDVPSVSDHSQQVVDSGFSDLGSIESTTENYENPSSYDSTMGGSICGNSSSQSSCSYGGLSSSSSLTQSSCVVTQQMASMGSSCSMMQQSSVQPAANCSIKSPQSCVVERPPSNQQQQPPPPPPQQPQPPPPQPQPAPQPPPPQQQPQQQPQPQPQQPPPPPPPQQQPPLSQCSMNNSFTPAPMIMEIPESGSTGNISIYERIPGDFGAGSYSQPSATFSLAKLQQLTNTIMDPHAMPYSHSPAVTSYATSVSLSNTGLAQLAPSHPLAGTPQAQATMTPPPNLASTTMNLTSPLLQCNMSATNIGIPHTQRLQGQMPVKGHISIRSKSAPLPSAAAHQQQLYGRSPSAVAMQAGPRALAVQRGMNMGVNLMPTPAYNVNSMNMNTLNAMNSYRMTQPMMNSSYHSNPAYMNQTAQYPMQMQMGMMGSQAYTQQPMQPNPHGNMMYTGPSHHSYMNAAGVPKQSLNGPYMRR
Chain of KAT5 Full length enzyme (Q92993 whole entry): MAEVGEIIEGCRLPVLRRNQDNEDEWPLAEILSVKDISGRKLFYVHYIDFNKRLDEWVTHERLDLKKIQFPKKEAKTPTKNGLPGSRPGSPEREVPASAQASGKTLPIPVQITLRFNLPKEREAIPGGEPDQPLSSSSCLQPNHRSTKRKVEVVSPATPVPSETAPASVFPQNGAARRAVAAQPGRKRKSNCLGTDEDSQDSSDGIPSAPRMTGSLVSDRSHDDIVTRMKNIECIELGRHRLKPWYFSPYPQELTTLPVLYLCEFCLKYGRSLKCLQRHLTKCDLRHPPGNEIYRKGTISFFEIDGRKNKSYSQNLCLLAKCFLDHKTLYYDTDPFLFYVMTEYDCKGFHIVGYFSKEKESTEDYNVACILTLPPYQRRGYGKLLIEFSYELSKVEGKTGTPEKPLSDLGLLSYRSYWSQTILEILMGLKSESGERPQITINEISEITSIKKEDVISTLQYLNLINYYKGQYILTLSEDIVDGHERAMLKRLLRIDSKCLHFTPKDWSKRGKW

SMILES	Ki (KAT6A Full length enzyme) [nM]	Ki [1] [nM]	Ki [2] [nM]	Ki (KAT8 Full length enzyme) [nM]	Ki (KAT5 Full length enzyme) [nM]	Ki [3] [nM]
COc1cc2c(NS(=O)(=O)c3c(OC)cccc3OC)noc2cc1Nc1c(C#N)c(C)nn1C [Example 46, N-{6-[(4-cyano-1,3-dimethyl-1H-pyrazol-5-yl)amino]-5-methoxy-1,2-benzoxazol-3-yl}-2,6-dimethoxybenzene-1-sulfonamide]	> 377	> 9770	> 16100			
COc1cc2c(NS(=O)(=O)c3c(OC)cc(CN4CC(F)(F)C4)cc3OC)noc2cc1Nc1cc(C2CC2)n[nH]1 [Example 203, N-{6-[(3-cyclopropyl-1H-pyrazol-5-yl)amino]-5-methoxy-1,2-benzoxazol-3-yl}-4-[(3,3-difluoroazetidin-1-yl)methyl]-2,6-dimethoxybenzene-1-sulfonamide]	0.4	4.3	3	1220	21.7	
COc1cccc(OC)c1S(=O)(=O)Nc1noc2cc(Nc3cc(C4CC4)n[nH]3)c(F)c(OC)c12 [Example 71, N-{6-[(3-cyclopropyl-1H-pyrazol-5-yl)amino]-5-fluoro-4-methoxy-1,2-benzoxazol-3-yl}-2,6-dimethoxybenzene-1-sulfonamide]	2.6	20.9	2.2	4050	591	
COc1cc2c(NS(=O)(=O)c3c(OC)cccc3OC)noc2cc1Nc1cc(Cc2ccccc2)n[nH]1 [Example 109, N-{6-[(3-benzyl-1H-pyrazol-5-yl)amino]-5-methoxy-1,2-benzoxazol-3-yl}-2,6-dimethoxybenzene-1-sulfonamide]	0.8	18.5	5	2930	326	
COc1cc2c(NS(=O)(=O)c3c(OC)cc(-c4nccc(CN(C)C)n4)cc3OC)noc2cc1Nc1cc(C2CC2)n[nH]1 [Example 222, N-{6-[(3-cyclopropyl-1 H-pyrazol-5-yl)amino]-5-methoxy-1,2-benzoxazol-3-yl}-4-{4-[(dimethylamino)methyl]pyrimidin-2-yl}-2,6-dimethoxybenzene-1-sulfonamide]	0.5	4.5	4	958	27.9	
COc1cc2c(NS(=O)(=O)c3c(OC)cccc3OC3CCC3)noc2cc1Nc1cc[nH]n1 [Example 33, 2-(cyclobutyloxy)-6-methoxy-N-{5-methoxy-6-[(1H-pyrazol-3-yl)amino]-1,2-benzoxazol-3-yl}benzene-1-sulfonamide]		142	15.4	733	988	
COc1cc2c(NS(=O)(=O)c3c(OC)cc(C4CCCN4C)cc3OC)noc2cc1Nc1cc(C2CC2)n[nH]1 (racemic) [Example 154, N-{6-[(3-cyclopropyl-1H-pyrazol-5-yl)amino]-5-methoxy-1,2-benzoxazol-3-yl}-2,6-dimethoxy-4-(1-methylpyrrolidin-2-yl)benzene-1-sulfonamide]	2	15.3	7.8	2140	88.3	
COc1cc2c(NS(=O)(=O)c3c(OC)cc(-c4ncc(N5CCN(C)CC5)cn4)cc3OC)noc2cc1Nc1cc(C2CC2)n[nH]1 [Example 226, N-{6-[(3-cyclopropyl-1 H-pyrazol-5-yl)amino]-5-methoxy-1,2-benzoxazol-3-yl}-2,6-dimethoxy-4-[5-(4-methylpiperazin-1-yl)pyrimidin-2-yl]benzene-1-sulfonamide]	0.3	3	2.4	572	11.6	
COc1cc2c(NS(=O)(=O)c3c(OC)cccc3OC)noc2cc1Nc1cc(CC(C)C)n[nH]1 [Example 114, 2,6-dimethoxy-N-(5-methoxy-6-{[3-(2-methylpropyl)-1H-pyrazol-5-yl]amino}-1,2-benzoxazol-3-yl)benzene-1-sulfonamide]	1.3	22	2.1	3360	312	
CCc1cc(Nc2cc3onc(NS(=O)(=O)c4c(OC)cccc4OC)c3c(OC)c2F)[nH]n1 [Example 72, N-{6-[(3-ethyl-1H-pyrazol-5-yl)amino]-5-fluoro-4-methoxy-1,2-benzoxazol-3-yl}-2,6-dimethoxybenzene-1-sulfonamide]	4.6	21.5	1.1	> 6970	1010	
COc1cc2c(NS(=O)(=O)c3c(OC)cc(-c4ncc(C)cn4)cc3OC)noc2cc1Nc1cc(C2CC2)n[nH]1 [Example 213, N-{6-[(3-cyclopropyl-1H-pyrazol-5-yl)amino]-5-methoxy-1,2-benzoxazol-3-yl}-2,6-dimethoxy-4-(5-methylpyrimidin-2-yl)benzene-1-sulfonamide]	0.5	3.9	1.7	1570		
COc1cc2c(NS(=O)(=O)c3c(OC)cc(CN4CC[C@@H](F)C4)cc3OC)noc2cc1Nc1cc(C2CC2)n[nH]1 [Example 201, N-{6-[(3-cyclopropyl-1H-pyrazol-5-yl)amino]-5-methoxy-1,2-benzoxazol-3-yl}-4-{[(3R)-3-fluoropyrrolidin-1-yl]methyl}-2,6-dimethoxybenzene-1-sulfonamide]	0.6	4.1	3.4	2190	192	
COc1cc2c(NS(=O)(=O)c3c(OC)cccc3OC)noc2cc1Nc1cc(C)nn1CCO [Example 59, N-(6-{[1-(2-hydroxyethyl)-3-methyl-1H-pyrazol-5-yl]amino}-5-methoxy-1,2-benzoxazol-3-yl)-2,6-dimethoxybenzene-1-sulfonamide]		> 2870	580			
COc1cc2c(NS(=O)(=O)c3c(OC)cc(C4CCCCN4C)cc3OC)noc2cc1Nc1cc(C2CC2)n[nH]1 (racemic) [Example 155, N-{6-[(3-cyclopropyl-1 H-pyrazol-5-yl)amino]-5-methoxy-1,2-benzoxazol-3-yl}-2,6-dimethoxy-4-(1-methylpiperidin-2-yl)benzene-1-sulfonamide]	2.9	24.3	14.9			
COc1cc2c(NS(=O)(=O)c3c(OC)cc([C@H]4CCCN4C)cc3OC)noc2cc1Nc1cc(C2CC2)n[nH]1 [Example 188, N-{6-[(3-cyclopropyl-1 H-pyrazol-5-yl)amino]-5-methoxy-1,2-benzoxazol-3-yl}-2,6-dimethoxy-4-[(2R)-1-methylpyrrolidin-2-yl]benzene-1-sulfonamide]	2.5	8.4		3690	140	2.9
CCOc1cccc(OC)c1S(=O)(=O)Nc1noc2cc(Nc3cc(C)[nH]n3)c(OC)cc12 [Example 99, 2-ethoxy-6-methoxy-N-{5-methoxy-6-[(5-methyl-1H-pyrazol-3-yl)amino]-1,2-benzoxazol-3-yl}benzene-1-sulfonamide]	0.5	82.6		4840	388	5.5
COc1cc2c(NS(=O)(=O)c3c(OC)cc(-c4ccn(C)n4)cc3OC)noc2cc1Nc1cc(C2CC2)n[nH]1 [Example 122, N-{6-[(3-cyclopropyl-1H-pyrazol-5-yl)amino]-5-methoxy-1,2-benzoxazol-3-yl}-2,6-dimethoxy-4-(1-methyl-1H-pyrazol-3-yl)benzene-1-sulfonamide]	0.3	3	1.2	395	45.3	
CCOc1cccc(OC)c1S(=O)(=O)Nc1noc2cc(Nc3cc(C(C)C)[nH]n3)c(OC)cc12 [Example 83, 2-ethoxy-6-methoxy-N-(5-methoxy-6-{[5-(propan-2-yl)-1H-pyrazol-3-yl]amino}-1,2-benzoxazol-3-yl)benzene-1-sulfonamide]	2.9	60.1		10400	502	7.8
COc1cc2c(NS(=O)(=O)c3c(OC)cc(-c4cscn4)cc3OC)noc2cc1Nc1cc(C2CC2)n[nH]1 [Example 121, N-{6-[(3-cyclopropyl-1H-pyrazol-5-yl)amino]-5-methoxy-1,2-benzoxazol-3-yl}-2,6-dimethoxy-4-(1,3-thiazol-4-yl)benzene-1-sulfonamide]	0.7	8.9	2.1	1120	106	
CCc1cc(Nc2cc3onc(NS(=O)(=O)c4ccc(C(=O)NCCCCCNC(=O)c5ccc(-c6nnc(C)nn6)cc5)cc4OC)c3cc2OC)[nH]n1 [Example 138, 4-({6-[(3-Ethyl-1 H-pyrazol-5-yl)amino]-5-methoxy-1,2-benzoxazol-3-yl}sulfamoyl)-3-methoxy-N-{5-[4-(6-methyl-1,2,4,5-tetrazin-3-yl)benzamido]pentyl}benzamide]	1.2	40.6		> 13000	195	5.6
COc1cc2c(NS(=O)(=O)c3c(OC)cccc3OC3CC3)noc2cc1Nc1cc[nH]n1 [Example 34, 2-(cyclopropyloxy)-6-methoxy-N-{5-methoxy-6-[(1H-pyrazol-3-yl)amino]-1,2-benzoxazol-3-yl}benzene-1-sulfonamide]	0.4	51.8	11.2	1240	365	
